Assay results taken from patent US12390435B2, “Electrophiles and electrophile pro-drugs as RAD51 inhibitors” (University of Pittsburgh—Of the Commonwealth System of …, priority 2018, dated 2025).

Assays:
NF-κB target genes = test: qPCR / RT2 profiler array of NF-κB target genes; assay type: cell-based, human; details: 5 μM
Method: Total RNA samples of tissues or cells were extracted using TRIZOL reagents according to the manufacturer's instructions (Invitrogen). Total RNA (1 μg) was reverse transcribed using the iScript cDNA kit (Bio-Rad) according to manufacturer instructions. cDNA (25 ng) was used for each subsequent quantitative real-time PCR (qRT-PCR) reaction. All qRT-PCR was performed on the StepOne PLUS PCR system (Thermo Fisher Scientific) using TaqMan gene expression assays. Fold change was calculated using the ΔΔCt method with 18S ribosomal RNA or human β-actin RNA serving as the internal control. Three individual experiments were done, and statistical significance was determined by one-way analysis of variance followed by Tukey post-test. […] The expression of 84 human NF-κB target genes was analyzed with 96-well plate format as instructed in the manufacturer's handbook (Qiagen). PCR amplification was conducted by StepOne PLUS PCR system and fold change of gene expression was calculated according to the manufacturer's instruction.

[1] = system: MDA-MB-231 and MDA-MB-468 cells; test: FACS cell cycle analysis; assay type: cell-based; details: 5 μM, 24 hr
Method: (§1) Adherent and nonadherent cells were collected, centrifuged at 2000×rpm for 10 min, washed with ice-cold phosphate-buffered saline, fixed with cold 70% ethanol at 4° C. for 30 mins, and stained with 50 μg/mL propidium iodide (Sigma-Aldrich). FACS analysis was performed at the University of Pittsburgh Department of Immunology Unified Flow Core Facility. Three individual experiments were done, and statistical comparisons among phases (G0/G1, S, and G2/M) were determined by one-way analysis of variance followed by Tukey post-test.

MCF-10A cells [2] = test: FACS cell cycle analysis; assay type: cell-based; details: 5 μM, 24 hr
Method: as §1

MCF-10A cells [3] = test: RAD51 foci and γH2AX immunofluorescence after 5 Gy IR; assay type: cell-based
Method: FIGS. 1A-1K. […] FIG. 1A. […] FIG. 1C. […] EC50 values indicate average+SEM, n=3. FIGS. 1D-1F. […] FIG. 1G. […] FIGS. 1H-1I. […] Merged samples include DAPI stained nuclei (blue). […] The average percentages of cells with 5 or more foci from confocal z-stacked images are indicated from 0 or 5 Gy samples+SEM. FIG. 1J. […] Rad51 foci were counted and γH2AX intensities were assessed by ImageJ in 5Gy irradiated cells (histograms), that were analyzed by immunofluorescence (IF). FIG. 1K, upper part. […] FIG. 1K, lower part. Combination index (CI) was calculated by the Chou-Talalay method. CI<1 is synergistic. Data represent the mean from three independent experiments.
To analyze RAD51 foci formation, 10,000 cells were plated to CultureWell 16-well chambered cover glass (MIDSCI) coated with poly-L-lysine (Sigma) and incubated overnight in 5% FBS media. […] Cells were fixed with 10% formalin for 20 min at 4° C. and immunostained with RAD51 (Santa Cruz) or γH2AX (EMD Biosciences) antibodies. Z-stack images were acquired using a Nikon AIR confocal microscope with 60× oil objective and acquisition performed using NIS elements software. Quantification of z-stacks and foci were completed using ImageJ software.

## CCCCCCCCC(=CCCCCCCCC(=O)O)[N+](=O)[O-] [NO2-OA, 10-nitro-octadec-9-enoic acid]
NF-κB target genes; MDA-MB-231 or MDA-MB-468 cells, TNFα 20 ng/mL
  TNFα-induced expression of ICAM-1 and uPA genes: suppression of TNFα-induced expression of ICAM-1 and uPA genes
NF-κB target genes; MDA-MB-468 cells, 24 hr
  mRNA expression of NF-κB target genes (PCR array): decreased the mRNA expression of multiple NF-κB target genes
[1]
  cell cycle phase distribution: significantly increased the percentage of cells at G2/M phase
MCF-10A cells [2]
  cell cycle phase populations (G0/G1, S, G2/M): not affected
MCF-10A cells [3]
  RAD51 foci / γH2AX in irradiated benign cells: no effect
